Experimental data reported in patent US20240043427A1 (Gilead Sciences, Inc., priority 2020, published 2024).

Assays:
[1] = biological target: T1, CD73 (Homo sapiens (Human), UniProt P21589); assay: MDA-MB-231 Cell Based CD73 Activity Assay (DMEM); conditions: MDA-MB-231-GFP cells, DMEM medium with 10% human plasma, 200 uM AMP
[2] = biological target: T1, CD73; assay type: biochemical; conditions: 1 mM NaH2PO4 in enzyme buffer, CD73 0.3 nM, AMP 15 uM

T1 sequence (P21589 27-574): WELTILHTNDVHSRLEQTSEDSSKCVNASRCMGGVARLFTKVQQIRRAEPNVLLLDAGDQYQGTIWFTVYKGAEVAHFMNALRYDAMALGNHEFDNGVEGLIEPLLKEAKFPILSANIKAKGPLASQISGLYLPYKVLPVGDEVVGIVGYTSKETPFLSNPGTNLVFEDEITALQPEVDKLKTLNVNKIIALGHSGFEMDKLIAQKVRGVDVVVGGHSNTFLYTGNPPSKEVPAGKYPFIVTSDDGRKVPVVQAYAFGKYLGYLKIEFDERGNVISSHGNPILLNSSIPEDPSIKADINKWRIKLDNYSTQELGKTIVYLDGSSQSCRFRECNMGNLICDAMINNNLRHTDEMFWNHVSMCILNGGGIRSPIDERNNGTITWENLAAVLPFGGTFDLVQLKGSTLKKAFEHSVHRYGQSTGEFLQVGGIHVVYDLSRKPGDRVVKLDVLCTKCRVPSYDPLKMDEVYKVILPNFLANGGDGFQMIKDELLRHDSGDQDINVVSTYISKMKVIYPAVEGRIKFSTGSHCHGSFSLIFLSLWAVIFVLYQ

EC50 [1] [nM] | IC50 [2] [nM] | Structure (SMILES)
7.4 | 0.48 | O=c1[nH]cc(-c2cc([C@H]3C[C@@H]3c3ccc(C(F)(F)F)cc3)c3ncnn3n2)c(=O)[nH]1 [Example 427, 5-(8-((1S,2S)-2-(4-(trifluoromethyl)phenyl)cyclopropyl)-[1,2,4]triazolo[1,5-b]pyridazin-6-yl)pyrimidine-2,4(1H,3H)-dione]
66 | 6 | O=c1[nH]cc(-c2cc(N3CC(F)(COc4ccc(C(F)(F)F)cn4)C3)c3nccn3n2)c(=O)[nH]1 [Example 435, 5-(8-(3-fluoro-3-(((5-(trifluoromethyl)pyridin-2-yl)oxy)methyl)azetidin-1-yl)imidazo[1,2-b]pyridazin-6-yl)pyrimidine-2,4(1H,3H)-dione]
2.63 | 0.77 | O=c1[nH]cc(-c2cc([C@H]3C[C@@H]3c3ccc(Cl)cn3)c3ncnn3n2)c(=O)[nH]1 [Example 439, 5-(8-((1S,2S)-2-(5-chloropyridin-2-yl)cyclopropyl)-[1,2,4]triazolo[1,5-b]pyridazin-6-yl)pyrimidine-2,4(1H,3H)-dione]
19.6 | 6.46 | O=c1[nH]cc(-c2cc(N3CC4CCCC43)c3nccn3n2)c(=O)[nH]1 (stereo not shown) [Example 442, 5-(8-(6-azabicyclo[3.2.0]heptan-6-yl)imidazo[1,2-b]pyridazin-6-yl)pyrimidine-2,4(1H,3H)-dione]
718 | > 250 | O=c1[nH]cc(-c2cc(N3CC(OCC(F)(F)F)C3)c3nccn3n2)c(=O)[nH]1 [Example 447, 5-(8-(3-(2,2,2-trifluoroethoxy)azetidin-1-yl)imidazo[1,2-b]pyridazin-6-yl)pyrimidine-2,4(1H,3H)-dione]
473 | 132 | O=c1[nH]cc(-c2cc(N3CC4(C3)CC(F)(F)CO4)c3nccn3n2)c(=O)[nH]1 [Example 449, 5-(8-(7,7-difluoro-5-oxa-2-azaspiro[3.4]octan-2-yl)imidazo[1,2-b]pyridazin-6-yl)pyrimidine-2,4(1H,3H)-dione]
50.6 | 28.7 | O=c1[nH]cc(-c2cc(N3CC[C@H](CC(F)F)C3)c3nccn3n2)c(=O)[nH]1 [Example 454, (R)-5-(8-(3-(2,2-difluoroethyl)pyrrolidin-1-yl)imidazo[1,2-b]pyridazin-6-yl)pyrimidine-2,4(1H,3H)-dione]
46 | 14.9 | O=c1[nH]cc(-c2cc(N3CC(F)(C(F)(F)F)C3)c3ncc(Cl)n3n2)c(=O)[nH]1 [Example 455, 5-(3-chloro-8-(3-fluoro-3-(trifluoromethyl)azetidin-1-yl)imidazo[1,2-b]pyridazin-6-yl)pyrimidine-2,4(1H,3H)-dione]
9.67 | 3.52 | CC(C)NC(=O)CCC(F)(F)COc1cc(-c2c[nH]c(=O)[nH]c2=O)nn2ccnc12 [Example 457, 5-((6-(2,4-dioxo-1,2,3,4-tetrahydropyrimidin-5-yl)imidazo[1,2-b]pyridazin-8-yl)oxy)-4,4-difluoro-N-isopropylpentanamide]

Further lines, the compound ahead of its results:

Structure (SMILES) | EC50 [1] [nM] | IC50 [2] [nM]
CC1(C)CN(c2cc(-c3c[nH]c(=O)[nH]c3=O)nn3ncnc23)CC1(F)F [Example 426, 5-(8-(3,3-difluoro-4,4-dimethylpyrrolidin-1-yl)-[1,2,4]triazolo[1,5-b]pyridazin-6-yl)pyrimidine-2,4(1H,3H)-dione] | 4.5 | 0.23
N#Cc1cc(F)c([C@H]2C[C@@H]2c2cc(-c3c[nH]c(=O)[nH]c3=O)nn3ncnc23)c(F)c1 [Example 428, 4-((1S,2S)-2-(6-(2,4-dioxo-1,2,3,4-tetrahydropyrimidin-5-yl)-[1,2,4]triazolo[1,5-b]pyridazin-8-yl)cyclopropyl)-3,5-difluorobenzonitrile] | 14.7 | 1.38
O=c1[nH]cc(-c2cc(N3CC[C@@H](OC(F)(F)F)C3)c3ncnn3n2)c(=O)[nH]1 [Example 429, (R)-5-(8-(3-(trifluoromethoxy)pyrrolidin-1-yl)-[1,2,4]triazolo[1,5-b]pyridazin-6-yl)pyrimidine-2,4(1H,3H)-dione] | 8.89 | 2.22
O=c1[nH]cc(-c2cc([C@H]3C[C@@H]3c3ccc4c(cnn4CC(F)(F)F)c3)c3ncnn3n2)c(=O)[nH]1 [Example 430, 5-(8-((1S,2S)-2-(1-(2,2,2-trifluoroethyl)-1H-indazol-5-yl)cyclopropyl)-[1,2,4]triazolo[1,5-b]pyridazin-6-yl)pyrimidine-2,4(1H,3H)-dione] | 0.71 | 0.18
O=c1[nH]cc(-c2cc([C@H]3C[C@@H]3c3ccc4cnn(CC(F)(F)F)c4c3)c3ncnn3n2)c(=O)[nH]1 [Example 431, 5-(8-((1S,2S)-2-(1-(2,2,2-trifluoroethyl)-1H-indazol-6-yl)cyclopropyl)-[1,2,4]triazolo[1,5-b]pyridazin-6-yl)pyrimidine-2,4(1H,3H)-dione] | 0.13 | 0.15
O=c1[nH]cc(-c2cc(N3CC(F)(C(F)(F)F)C3)c3ncnn3n2)c(=O)[nH]1 [Example 433, 5-(8-(3-fluoro-3-(trifluoromethyl)azetidin-1-yl)-[1,2,4]triazolo[1,5-b]pyridazin-6-yl)pyrimidine-2,4(1H,3H)-dione] | 44.6 | 9.71
O=c1[nH]cc(-c2cc(N3CC(Oc4ccc(C(F)(F)F)cn4)(C(F)(F)F)C3)c3nccn3n2)c(=O)[nH]1 [Example 434, 5-(8-(3-(trifluoromethyl)-3-((5-(trifluoromethyl)pyridin-2-yl)oxy)azetidin-1-yl)imidazo[1,2-b]pyridazin-6-yl)pyrimidine-2,4(1H,3H)-dione] | 14.4 | 2.78
O=C(NCC(F)(F)F)OCC1(F)CN(c2cc(-c3c[nH]c(=O)[nH]c3=O)nn3ccnc23)C1 [Example 437, (1-(6-(2,4-dioxo-1,2,3,4-tetrahydropyrimidin-5-yl)imidazo[1,2-b]pyridazin-8-yl)-3-fluoroazetidin-3-yl)methyl (2,2,2-trifluoroethyl)carbamate] | 43.6 | 12.8
CC(C)NC(=O)OCC(F)(F)COc1cc(-c2c[nH]c(=O)[nH]c2=O)nn2ncnc12 [Example 438, 3-((6-(2,4-dioxo-1,2,3,4-tetrahydropyrimidin-5-yl)-[1,2,4]triazolo[1,5-b]pyridazin-8-yl)oxy)-2,2-difluoropropyl isopropylcarbamate] | 0.1 | 0.14
CC1(C)CN(c2cc(-c3c[nH]c(=O)[nH]c3=O)nn3c(F)c(C4CC4)nc23)CC1(F)F [Example 440, 5-(2-cyclopropyl-8-(3,3-difluoro-4,4-dimethylpyrrolidin-1-yl)-3-fluoroimidazo[1,2-b]pyridazin-6-yl)pyrimidine-2,4(1H,3H)-dione] | 140 | 38.2
CC1(C)CN(c2cc(-c3c[nH]c(=O)[nH]c3=O)nn3cc(C4(C(F)(F)F)CC4)nc23)CC1(F)F [Example 441, 5-(8-(3,3-difluoro-4,4-dimethylpyrrolidin-1-yl)-2-(1-(trifluoromethyl)cyclopropyl)imidazo[1,2-b]pyridazin-6-yl)pyrimidine-2,4(1H,3H)-dione] | 239 | 46.3
O=c1[nH]cc(-c2cc(N3CC(CC(F)F)C3)c3nccn3n2)c(=O)[nH]1 [Example 443, 5-(8-(3-(2,2-difluoroethyl)azetidin-1-yl)imidazo[1,2-b]pyridazin-6-yl)pyrimidine-2,4(1H,3H)-dione] | 188 | 157
CC1(CC(F)F)CN(c2cc(-c3c[nH]c(=O)[nH]c3=O)nn3ccnc23)C1 [Example 444, 5-(8-(3-(2,2-difluoroethyl)-3-methylazetidin-1-yl)imidazo[1,2-b]pyridazin-6-yl)pyrimidine-2,4(1H,3H)-dione] | 356 | 71
CC1(CC(F)(F)F)CN(c2cc(-c3c[nH]c(=O)[nH]c3=O)nn3ccnc23)C1 [Example 445, 5-(8-(3-methyl-3-(2,2,2-trifluoroethyl)azetidin-1-yl)imidazo[1,2-b]pyridazin-6-yl)pyrimidine-2,4(1H,3H)-dione] | 256 | 148
O=c1[nH]cc(-c2cc(N3CC(C45CC(C4)C5)C3)c3nccn3n2)c(=O)[nH]1 [Example 446, 5-(8-(3-(bicyclo[1.1.1]pentan-1-yl)azetidin-1-yl)imidazo[1,2-b]pyridazin-6-yl)pyrimidine-2,4(1H,3H)-dione] | 1100 | 91
O=c1[nH]cc(-c2cc(N3CC4(CC(C(F)F)C4)C3)c3nccn3n2)c(=O)[nH]1 [Example 448, 5-(8-(6-(difluoromethyl)-2-azaspiro[3.3]heptan-2-yl)imidazo[1,2-b]pyridazin-6-yl)pyrimidine-2,4(1H,3H)-dione] | 1360 | 194
O=c1[nH]cc(-c2cc(N3CC(Cc4ccc(F)cc4F)C3)c3nccn3n2)c(=O)[nH]1 [Example 450, 5-(8-(3-(2,4-difluorobenzyl)azetidin-1-yl)imidazo[1,2-b]pyridazin-6-yl)pyrimidine-2,4(1H,3H)-dione] | 250 | 230
O=c1[nH]cc(-c2cc(N3CC4CCCCC43)c3nccn3n2)c(=O)[nH]1 (stereo not shown) [Example 451, 5-(8-(7-azabicyclo[4.2.0]octan-7-yl)imidazo[1,2-b]pyridazin-6-yl)pyrimidine-2,4(1H,3H)-dione] | 167 | 67.6
O=c1[nH]cc(-c2cc([C@H]3C[C@@H]3c3ccc4cnn(CC(F)(F)F)c4c3)n3nccc3n2)c(=O)[nH]1 [Example 456, 5-(7-((1S,2S)-2-(1-(2,2,2-trifluoroethyl)-1H-indazol-6-yl)cyclopropyl)pyrazolo[1,5-a]pyrimidin-5-yl)pyrimidine-2,4(1H,3H)-dione] | 0.15 | 0.53
O=C(CCC(F)(F)COc1cc(-c2c[nH]c(=O)[nH]c2=O)nn2ccnc12)NCC(F)(F)F [Example 458, 5-((6-(2,4-dioxo-1,2,3,4-tetrahydropyrimidin-5-yl)imidazo[1,2-b]pyridazin-8-yl)oxy)-4,4-difluoro-N-(2,2,2-trifluoroethyl)pentanamide] | 13.2 | 4.04
